Results as given in PubChem BioAssay (NCI).
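Interpolation was linear, between the two tested concentrations surrounding the appropriate level; five concentrations were tested over 48 hours in 96-well plates. Here, GI50 denotes the concentration required for 50% inhibition of growth. At the TGI there is no net growth.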

Legend:
Test in all cases: NCI-60 cell line screen, 48 h
T-47D breast = system: T-47D breast
OVCAR-5 ovarian = system: OVCAR-5 ovarian
KM12 colon = system: KM12 colon
EKVX NSCLC = system: EKVX NSCLC
SF-268 CNS = system: SF-268 CNS
IGROV1 ovarian = system: IGROV1 ovarian
ACHN renal = system: ACHN renal
SW-620 colon = system: SW-620 colon
SK-MEL-5 melanoma = system: SK-MEL-5 melanoma
NCI-H460 lung = system: NCI-H460 lung
M14 melanoma = system: M14 melanoma
SF-295 CNS = system: SF-295 CNS
U251 CNS = system: U251 CNS
NCI-H522 lung = system: NCI-H522 lung
SF-539 CNS = system: SF-539 CNS
NCI/ADR-RES ovarian = system: NCI/ADR-RES ovarian
BT-549 breast = system: BT-549 breast
COLO 205 colon = system: COLO 205 colon
HT29 colon = system: HT29 colon
RXF 393 renal = system: RXF 393 renal
MDA-MB-435 = system: MDA-MB-435
UACC-257 melanoma = system: UACC-257 melanoma
HCT-116 colon = system: HCT-116 colon
CAKI-1 renal = system: CAKI-1 renal
HCC-2998 colon = system: HCC-2998 colon
HCT-15 colon = system: HCT-15 colon
DU-145 prostate = system: DU-145 prostate
MOLT-4 leukemia = system: MOLT-4 leukemia
HOP-92 NSCLC = system: HOP-92 NSCLC
SNB-75 CNS = system: SNB-75 CNS
RPMI-8226 leukemia = system: RPMI-8226 leukemia
SR leukemia = system: SR leukemia
OVCAR-3 ovarian = system: OVCAR-3 ovarian
SK-MEL-28 melanoma = system: SK-MEL-28 melanoma
K-562 leukemia = system: K-562 leukemia
NCI-H226 lung = system: NCI-H226 lung
CCRF-CEM leukemia = system: CCRF-CEM leukemia
PC-3 prostate = system: PC-3 prostate
SNB-19 CNS = system: SNB-19 CNS
SN12C renal = system: SN12C renal
TK-10 renal = system: TK-10 renal
OVCAR-4 ovarian = system: OVCAR-4 ovarian
A498 renal = system: A498 renal
HOP-62 NSCLC = system: HOP-62 NSCLC
UACC-62 melanoma = system: UACC-62 melanoma
SK-OV-3 ovarian = system: SK-OV-3 ovarian
OVCAR-8 ovarian = system: OVCAR-8 ovarian
MDA-MB-231 breast = system: MDA-MB-231 breast
MCF7 breast = system: MCF7 breast
786-0 renal = system: 786-0 renal
A549 NSCLC = system: A549 NSCLC
HL-60(TB) leukemia = system: HL-60(TB) leukemia
UO-31 renal = system: UO-31 renal
HS 578T breast = system: HS 578T breast
LOX IMVI melanoma = system: LOX IMVI melanoma
SK-MEL-2 melanoma = system: SK-MEL-2 melanoma
MALME-3M melanoma = system: MALME-3M melanoma
NCI-H23 lung = system: NCI-H23 lung

Nc1nc(/C=C\c2ccc([N+](=O)[O-])cc2)nc(N2CCN(c3ccccc3)CC2)n1
GI50 (T-47D breast): 23.1 µM
TGI (T-47D breast): 61 µM
GI50 (OVCAR-5 ovarian): 89 µM
TGI (OVCAR-5 ovarian): > 100 µM
GI50 (KM12 colon): 20.7 µM
TGI (KM12 colon): 53.8 µM
GI50 (EKVX NSCLC): 43.4 µM
TGI (EKVX NSCLC): > 100 µM
GI50 (SF-268 CNS): 96.7 µM
TGI (SF-268 CNS): > 100 µM
GI50 (IGROV1 ovarian): 20.1 µM
TGI (IGROV1 ovarian): 54.1 µM
GI50 (ACHN renal): 30.2 µM
TGI (ACHN renal): > 100 µM
GI50 (SW-620 colon): 40.4 µM
TGI (SW-620 colon): > 100 µM
GI50 (SK-MEL-5 melanoma): 18.2 µM
TGI (SK-MEL-5 melanoma): 33.1 µM
GI50 (NCI-H460 lung): 35.5 µM
TGI (NCI-H460 lung): > 100 µM
GI50 (M14 melanoma): 25.6 µM
TGI (M14 melanoma): 62.9 µM
GI50 (SF-295 CNS): 38.4 µM
TGI (SF-295 CNS): > 100 µM
GI50 (U251 CNS): 38.2 µM
TGI (U251 CNS): > 100 µM
GI50 (NCI-H522 lung): 18.4 µM
TGI (NCI-H522 lung): 50.5 µM
GI50 (SF-539 CNS): > 100 µM
TGI (SF-539 CNS): > 100 µM
GI50 (NCI/ADR-RES ovarian): 25.3 µM
TGI (NCI/ADR-RES ovarian): 77.3 µM
GI50 (BT-549 breast): 35.7 µM
TGI (BT-549 breast): > 100 µM
GI50 (COLO 205 colon): 19 µM
TGI (COLO 205 colon): 55.2 µM
GI50 (HT29 colon): 35.3 µM
TGI (HT29 colon): > 100 µM
GI50 (RXF 393 renal): 29.3 µM
TGI (RXF 393 renal): 93 µM
GI50 (MDA-MB-435): 20.5 µM
TGI (MDA-MB-435): 41.7 µM
GI50 (UACC-257 melanoma): 25.1 µM
TGI (UACC-257 melanoma): 61.5 µM
GI50 (HCT-116 colon): 24.8 µM
TGI (HCT-116 colon): > 100 µM
GI50 (CAKI-1 renal): 22.5 µM
TGI (CAKI-1 renal): 45.8 µM
GI50 (HCC-2998 colon): 41 µM
TGI (HCC-2998 colon): 96.2 µM
GI50 (HCT-15 colon): 25.3 µM
TGI (HCT-15 colon): > 100 µM
GI50 (DU-145 prostate): 40 µM
TGI (DU-145 prostate): > 100 µM
GI50 (MOLT-4 leukemia): 27.4 µM
TGI (MOLT-4 leukemia): > 100 µM
GI50 (HOP-92 NSCLC): 44.2 µM
TGI (HOP-92 NSCLC): > 100 µM
GI50 (SNB-75 CNS): 39.8 µM
TGI (SNB-75 CNS): > 100 µM
GI50 (RPMI-8226 leukemia): 22.9 µM
TGI (RPMI-8226 leukemia): > 100 µM
GI50 (SR leukemia): 21.3 µM
TGI (SR leukemia): 60.2 µM
GI50 (OVCAR-3 ovarian): 26.9 µM
TGI (OVCAR-3 ovarian): 69.6 µM
GI50 (SK-MEL-28 melanoma): 41.7 µM
TGI (SK-MEL-28 melanoma): > 100 µM
GI50 (K-562 leukemia): 26.5 µM
TGI (K-562 leukemia): 79.6 µM
GI50 (NCI-H226 lung): 40.8 µM
TGI (NCI-H226 lung): > 100 µM
GI50 (CCRF-CEM leukemia): 23.2 µM
TGI (CCRF-CEM leukemia): 74.6 µM
GI50 (PC-3 prostate): 23.7 µM
TGI (PC-3 prostate): 67.6 µM
GI50 (SNB-19 CNS): > 100 µM
TGI (SNB-19 CNS): > 100 µM
GI50 (SN12C renal): 42.3 µM
TGI (SN12C renal): > 100 µM
GI50 (TK-10 renal): 20.5 µM
TGI (TK-10 renal): 65 µM
GI50 (OVCAR-4 ovarian): 53.3 µM
TGI (OVCAR-4 ovarian): > 100 µM
GI50 (A498 renal): 37.6 µM
TGI (A498 renal): > 100 µM
GI50 (HOP-62 NSCLC): 36.2 µM
TGI (HOP-62 NSCLC): > 100 µM
GI50 (UACC-62 melanoma): 18.9 µM
TGI (UACC-62 melanoma): 43.6 µM
GI50 (SK-OV-3 ovarian): 28.7 µM
TGI (SK-OV-3 ovarian): 77 µM
GI50 (OVCAR-8 ovarian): 29.7 µM
TGI (OVCAR-8 ovarian): > 100 µM
GI50 (MDA-MB-231 breast): 20.8 µM
TGI (MDA-MB-231 breast): 58.1 µM
GI50 (MCF7 breast): 34.2 µM
TGI (MCF7 breast): > 100 µM
GI50 (786-0 renal): 45.8 µM
TGI (786-0 renal): > 100 µM
GI50 (A549 NSCLC): 38.2 µM
TGI (A549 NSCLC): > 100 µM
GI50 (HL-60(TB) leukemia): 20 µM
TGI (HL-60(TB) leukemia): 58.9 µM
GI50 (UO-31 renal): 27.7 µM
TGI (UO-31 renal): > 100 µM
GI50 (HS 578T breast): 80 µM
TGI (HS 578T breast): > 100 µM
GI50 (LOX IMVI melanoma): 30.2 µM
TGI (LOX IMVI melanoma): > 100 µM
GI50 (SK-MEL-2 melanoma): 30.2 µM
TGI (SK-MEL-2 melanoma): 81.3 µM

O=C(O)/C(=C/C(=O)c1ccc(Cl)cc1)NNc1ccc([N+](=O)[O-])cc1[N+](=O)[O-]
TGI (T-47D breast): > 100 µM
TGI (OVCAR-5 ovarian): > 100 µM
TGI (KM12 colon): > 100 µM
TGI (EKVX NSCLC): > 100 µM
TGI (SF-268 CNS): > 100 µM
TGI (IGROV1 ovarian): > 100 µM
TGI (ACHN renal): > 100 µM
TGI (SK-MEL-5 melanoma): > 100 µM
TGI (NCI-H460 lung): > 100 µM
TGI (M14 melanoma): > 100 µM
TGI (SF-295 CNS): > 100 µM
TGI (U251 CNS): > 100 µM
TGI (NCI-H522 lung): 46 µM
TGI (SF-539 CNS): > 100 µM
TGI (NCI/ADR-RES ovarian): > 100 µM
TGI (BT-549 breast): 92.5 µM
TGI (COLO 205 colon): > 100 µM
TGI (HT29 colon): > 100 µM
TGI (MDA-MB-435): > 100 µM
TGI (UACC-257 melanoma): > 100 µM
TGI (HCT-116 colon): 36.3 µM
TGI (CAKI-1 renal): 46 µM
TGI (HCC-2998 colon): > 100 µM
TGI (HCT-15 colon): > 100 µM
TGI (DU-145 prostate): > 100 µM
TGI (MOLT-4 leukemia): > 100 µM
TGI (HOP-92 NSCLC): 57.1 µM
TGI (RPMI-8226 leukemia): 96.9 µM
TGI (SR leukemia): > 100 µM
TGI (OVCAR-3 ovarian): 94.8 µM
TGI (SK-MEL-28 melanoma): > 100 µM
TGI (K-562 leukemia): > 100 µM
TGI (NCI-H226 lung): 69.3 µM
TGI (CCRF-CEM leukemia): 70 µM
TGI (PC-3 prostate): > 100 µM
TGI (SNB-19 CNS): > 100 µM
TGI (MALME-3M melanoma): > 100 µM
TGI (SN12C renal): > 100 µM
TGI (TK-10 renal): > 100 µM
TGI (OVCAR-4 ovarian): 42 µM
TGI (A498 renal): > 100 µM
TGI (HOP-62 NSCLC): 70 µM
TGI (UACC-62 melanoma): > 100 µM
TGI (NCI-H23 lung): > 100 µM
TGI (SK-OV-3 ovarian): > 100 µM
TGI (OVCAR-8 ovarian): > 100 µM
TGI (MDA-MB-231 breast): > 100 µM
TGI (MCF7 breast): > 100 µM
TGI (786-0 renal): 53.4 µM
TGI (A549 NSCLC): > 100 µM
TGI (HL-60(TB) leukemia): > 100 µM
TGI (UO-31 renal): 44.2 µM
TGI (HS 578T breast): 94.4 µM
TGI (LOX IMVI melanoma): > 100 µM
TGI (SK-MEL-2 melanoma): > 100 µM
